The subject of this experiment is swine adipose tissue. Description: Inhibition of lipogenesis (lipid synthesis from glucose-U-14C) in swine adipose tissue slices. The format is cell-based. Particulars: Sus scrofa, 100 micrograms per milliliter, 37° C., 2 hours, 5% DMSO, insulin, triplicate, read-out: Percent Inhibition of lipogenesis compared to control. The source says: The manner in which they cause this effect is not known with certainty; it is believed that they interfere with the synthesis of fatty acids in the tissues. Their effectiveness for this purpose has been ascertained by immersing samples of swine adipose tissue in a liquid medium containing radioactive glucose and the test chemical for a period of time, then isolating the lipid from the treated tissue and determining the up-take of the radio-active carbon by means of scintillation counting techniques. These tests were conducted in swine adipose tissue because in swine, the primary site of lipogenesis--i.e., fatty acid synthesis--appears to be adipose tissue.
Described in more detail, the tests were conducted according to the following general procedure:
150 milligrams of slices of swine adipose tissue were incubated at 37° C. for 2 hours with shaking in 3 milliliters of Krebs-Rringer bicarbonate solution containing one-half the normal calcium ion concentration, 60 micromoles of glucose, 0.5 micro-Curie of glucose-U^14 C, and 300 microunits of insulin, and 5% dimethyl sulfoxide (DMSO). The test compounds were added as a solution or suspension in DMSO and were present at a concentration of 100 micrograms per milliliter of the incubation mixture.
The incubation was terminated by addition of 0.25 milliliter of 1 N sulfuric acid. The resulting mixture was extracted with a total of 25 milliliters of chloroform: methanol (2:1 v/v). The extracts were washed according to Folch et al. (J. Biol. Chem., 226, 497-509, (1957)), air dried, and counted in a liquid scintillation counter with 15 milliliters of counting fluid (two parts toluene containing 0.4% w/v New England Nuclear Omnifluor: 1 part Triton X-100). The tests were conducted in triplicate and were accompanied by control tests in which all ingredients,proportions and conditions were the same except that no test compound was included. From the data obtained were calculated the percent inhibition of lipid synthesis by the test compounds in each case. The data obtained from the tests are set out in Table 1, as the percent inhibition of lipogenesis compared to the results obtained in the control tests wherein only the test compound was omitted.

With `C=CCNC(=O)C1CNc2cc(-c3ccccc3)ccc2O1` (centres unmarked) [Compound 11, 3,4-dihydro-6-phenyl-N-(2-propenyl)-2H-1,4-benzoxazine-2-carboxamide], the inhibition at 100 µg/mL is 70%.
The same measure for `C=CCNC(=O)C1CNc2cccc(Cl)c2O1` (centres unmarked) [Compound 8, 8-chloro-3,4-dihydro-N-(2-propenyl)-2H-1,4-benzoxazine-2-carboxamide]: 24%.
The same measure for `C=CCNC(=O)C1CNc2cc(NS(C)(=O)=O)ccc2O1` (centres unmarked) [Compound 5, 3,4-dihydro-6-((methylsulfonyl)amino)-N-(2-propenyl)-2H-1,4-benzoxazine-2-carboxamide]: 40%.
The same measure for `C=CCNC(=O)C1CNc2cc(Cl)ccc2O1` (centres unmarked) [Compound 3, 6-chloro-3,4-dihydro-N-(2-propenyl)-2H-1,4-benzoxazine-2-carboxamide]: 63%.
In the case of `C=CCNC(=O)C1CNc2cc(Cl)c(Cl)cc2O1` (centres unmarked) [Compound 9, 6,7-dichloro-3,4-dihydro-N-(2-propenyl)-2H-1,4-benzoxazine-2-carboxamide], the inhibition at 100 µg/mL was 44%.
With `C=CCNC(=O)C1CNc2cc(C(F)(F)F)ccc2O1` (centres unmarked) [Compound 6, 6-(trifluoromethyl)-3,4-dihydro-N-(2-propenyl)-2H-1,4-benzoxazine-2-carboxamide] the figure was 57%; with `C=CCNC(=O)C1CNc2ccc(C)cc2O1` (centres unmarked) [Compound 10, 3,4-dihydro-7-methyl-N-(2-propenyl)-2H-1,4-benzoxazine-2-carboxamide], 21%; with `C=CCNC(=O)C1CNc2cc(C)ccc2O1` (centres unmarked) [Compound 4, 6-methyl-3,4-dihydro-N-(2-propenyl)-2H-1,4-benzoxazine-2-carboxamide], 57%.
With `C=CCNC(=O)C1CNc2ccccc2O1` (centres unmarked) [Compound 1, 3,4-dihydro-N-(2-propenyl)-2H-1,4-benzoxazine-2-carboxamide] the figure was 51%; with `C=CCNC(=O)C1CNc2cc(OC)ccc2O1` (centres unmarked) [Compound 7, 3,4-dihydro-6-methoxy-N-(2-propenyl)-2H-1,4-benzoxazine-2-carboxamide], 76%.
The same measure for `C=CCNC(=O)C1CN(C)c2ccccc2O1` (centres unmarked) [Compound 2, 3,4-dihydro-4-methyl-N-(2-propenyl)-2H-1,4-benzoxazine-2-carboxamide]: 40%.

One may read the inhibition as the relative decrease from the control value, in per cent.

The values above are taken from US4164576A, “Benzoxazine carboxamides” (Shell Oil Company, priority 1978, dated 1979).
